The values below come from US9572881B2, “Halogenated compounds for photodynamic therapy” (Nanoquantum Sciences, Inc., priority 2012, dated 2017).

Several values for one entry are separate records, joined by “and”; a condition that tells them apart may be missing. Identical values can stand only once.

The conditions of data set [1]: cited from earlier work.
Data set [2] in a line: Singlet oxygen quantum yield, DPBF scavenger method in ethanol. The class given is physicochemical. The conditions noted are these: measured in ethanol, 650 nm laser, ICG reference.
Experimental: The modified relative photochemical method of Spiller W. et al. (J. Porphyrins Phthalocyanines, 1998, V. 2, 145-158) utilizing 1,3-diphenylisobenzofuran (DPBF) as a chemical scavenger was used to determine the photosensitiser's singlet oxygen quantum yields (ΦΔ) in ethanol solutions.
Ethanolic solutions containing DPBF (10 μM) and sensitizers with absorbance (optical density) in a range between 0.09 and 0.10 at 650 nm (measured in a standard 1-cm quartz cell) were prepared. Samples were saturated with oxygen by bubbling. Next, 3 mL of the solution were placed in a 1-cm cell equipped with a stirring bar and a 10 mW, 650 nm diode laser was hermetically attached to the top of cuvette so as to avoid solvent evaporation and to provide a light beam direction from top to bottom of the cuvette. The solution in the cuvette was irradiated with the diode laser under continuous stirring for a certain time. DPBF consumption was determined by monitoring DPBF bleaching over irradiation time using absorption spectroscopy at 411 nm (extinction coefficient 22,000 M^−1 cm^−1). At least six absorption spectra were obtained for each solution at different irradiation times until the DPBF absorbance reduced at least to the 10% of the initial absorbance.
The decrease of DPBF absorbance at 411 nm versus irradiation time was plotted for each photosensitizer and the DPBF degradation rate constant (K) characterizing the reaction rate of singlet oxygen with DPBF in presence of a sensitizer was calculated.
Data set [3] can be described thus: Fluorescence emission spectra and quantum yield relative to HITC. The class given is physicochemical. The conditions noted are these: for QY (fluor): given as fraction in synthesis example. The procedure: Fluorescence spectra for the dyes were determined at RT on a Varian Cary Eclipse spectrofluorometer in a standard 1-cm quartz cell. The spectra were corrected. All concentrations of the fluorophores were chosen to be between 0.2 and 1.0 μM.
For the determination of the quantum yields (QY), the integrated relative intensities of the dyes or dye-protein conjugates, were measured against HITC as the reference. All absorbances at excitation wavelength (λexc) were in the range of 0.04-0.08 (when measured in a 1-cm cell).
The QY of each sample was independently measured 3-4 times and the average value was calculated.

Data set [4] concerns bovine erythrocytes. Kind of data set: Phototoxicity (glow lamp) and dark toxicity by hemolysis of bovine erythrocytes. The class given is cell-based. The conditions noted are these: Dark. The procedure:
(§1) Bovine erythrocytes were isolated from blood plasma stored with sodium citrate. 1 mL of bovine blood was treated at centrifuge (3,000 rpm) for 10 min to precipitate erythrocytes. The supernatant was decanted, 2 mL of physiological solution were added, treated and erythrocytes were precipitated with centrifuge. The washing procedure was repeated for 3 times and the precipitated erythrocytes were collected. […] Cells were dye-incubated for 45 minutes at 37° C. in the dark. Then the examined suspensions of cells (erythrocytes) were placed at a distance of 30-cm from a 250 W glow red-lamp equipped with a water-based heat filter and irradiated with occasional stirring. After irradiation, cells were stored at 4° C. for 15 hours. […] The hemolysis level (percentage of hemolyzed cells) was determined as the ratio of absorbances of the supernatant and a solution of 100% hemolysed cells. The 100% hemolysis was taken as the value obtained when the given number of erythrocytes were suspended in distilled water.

Assay in data set [5]: as above
It is filed as cell-based. The conditions noted are these: bovine, bovine erythrocytes, Glow Lamp; for hemolysis at 30 min, 0.5 µM: exposure 30 min. Here is the method: as §1

The nature of data set [6]: Absorption spectra and extinction coefficients of dyes. It is filed as physicochemical. Particulars: for Extinction coefficient ε at λmax (abs): synthesis example, no unit. The procedure: Absorption spectra were measured at RT on a Perking Elmer Lambda 35 UV/Vis spectrophotometer. […] The stock solution was diluted (1:2000) and the absorbance was measured in a 5-cm standard quartz cell. All dye concentrations were in the range of 1.1 to 2.0×10^−7 M. The extinction coefficients were calculated according to Lambert-Beer's law.

For data set [7] the following is noted: background statement, at ~780 nm; cited from earlier work.
For data set [8] the following is noted: ethanol; reference value from Cardillo et al.; cited from earlier work.

In the case of `CN1\C(=C/C=C/C=C/C=C/C2=[N+](C)c3ccccc3C2(C)C)C(C)(C)c2ccccc21.[I-]` [HITC, 1,1′,3,3,3′,3′-hexamethylindotricarbocyanine, reference compound], the QY of reference in data set [1] (in methanol, reference standard) is reported as 28%. In addition, the “Singlet oxygen generation quantum yield ΦΔ” value in data set [2] came to 5%. The compound further returned an Emission max. in data set [3] (Methanol) of 768 nm. Besides, the Fluorescence quantum yield in data set [3] (Methanol) was 28%. The Hemolysis in data set [4] (5 μM) is on record as 2.0%; in data set [4] (10 μM), 6.7%. Further, the hemolysis at 60 min, 1 µM in data set [5] (1 μM, exposure 60 min) amounted to 4.4%. Moreover, in data set [5] (1 μM, exposure 120 min), the hemolysis at 120 min, 1 µM is 5.4%. The hemolysis at 60 min, 5 µM in data set [5] (5 μM, exposure 60 min) came to 65%. In addition, the hemolysis at 120 min, 5 µM in data set [5] (5 μM, exposure 120 min) is 74%. In addition, the Absorption max. in data set [6] (Methanol) is given as 740 nm.
For `CN1\C(=C/C=C/C=C/C=C/C2=[N+](C)c3ccc(I)cc3C2(C)C)C(C)(C)c2cc(I)ccc21.[I-]` [I-25], the “Singlet oxygen generation quantum yield ΦΔ” value in data set [2] is recorded as 20%. Also, the results for the Emission max. in data set [3] (Chloroform), in data set [3] (Methanol) and in data set [3] (Water) were 801 nm, 784 nm and 779 nm, respectively. In addition, the Fluorescence quantum yield in data set [3] (Methanol) turned out to be 30%. The Hemolysis in data set [4] (50 μM) worked out at 51%. The compound also displayed a hemolysis at 60 min, 0.1 µM in data set [5] (exposure 60 min) of 39%. In addition, the hemolysis at 30 min, 0.5 µM in data set [5] was 83%. Besides, the Absorption max. in data set [6] (Chloroform) worked out at 771 nm; in data set [6] (Methanol) it was 753 nm; in data set [6] (Water), 750 nm.
As to `CN1\C(=C/C=C/C=C/C=C/C2=[N+](C)c3cc(I)cc(I)c3C2(C)C)C(C)(C)c2c(I)cc(I)cc21.[I-]` [I-71, 2-[7-(4,6-diiodo-1,3,3-trimethyl-2,3-dihydro-1H-2-indolyliden)-1,3,5-heptatrienyl]-4,6-diiodo-1,3,3-trimethyl-3H-indolium iodide], in data set [2], the “Singlet oxygen generation quantum yield ΦΔ” value is 19%. Further, in data set [3] (Methanol), the Emission max. was 773 nm and the Fluorescence quantum yield was determined as 46%. Further, in data set [3] (methanol), the “QY (fluor)” value is listed as 0.46. The compound further displayed a Hemolysis in data set [4] (5 μM) of 2%. The compound also had a Hemolysis in data set [4] (50 μM) of 30%. In data set [5] (exposure 60 min), the hemolysis at 60 min, 0.1 µM amounted to 21%. Also, in data set [5], the hemolysis at 30 min, 0.5 µM was 75%. The compound further showed an Absorption max. in data set [6] (Methanol) of 745 nm.
As for `CN1\C(=C/C=C/C=C/C=C/C2=[N+](C)c3cc(I)c(I)c(I)c3C2(C)C)C(C)(C)c2c1cc(I)c(I)c2I.[I-]` [I-76, 4,5,6-triiodo-1,3,3-trimethyl-2-[7-(4,5,6-triiodo-1,3,3-trimethyl-2,3-dihydro-1H-2-indolyliden)-1,3,5-heptatrienyl]-3H-indolium iodide], the “Singlet oxygen generation quantum yield ΦΔ” value in data set [2] is 50%. In data set [3] (Methanol), this compound returned an Emission max. of 785 nm and a Fluorescence quantum yield of 43%. This compound came in with a Hemolysis in data set [4] (5 μM) of 2%. In data set [4] (50 μM), this compound came in with a Hemolysis of 12%. Besides, in data set [5] (exposure 60 min), the hemolysis at 60 min, 0.1 µM is 43%. In data set [5], the hemolysis at 30 min, 0.5 µM turned out to be 46%. The Absorption max. in data set [6] (Methanol) is 754 nm and 755 nm.
Consider `CC1(CCCCCC(=O)O)C(/C=C/C=C/C=C/C=C2\N(CCCS(=O)(=O)O)c3cc(I)c(I)c(I)c3C2(C)CCCCCC(=O)O)=[N+](CCCS(=O)(=O)[O-])c2cc(I)c(I)c(I)c21` (centres unmarked) [I-86, 3-(3-(5-carboxypentyl)-2-7-[3-(5-carboxypentyl)-4,5,6-triiodo-3-methyl-1-(3-sulfopropyl)-2,3-dihydro-1H-2-indolyliden]-1,3,5-heptatrienyl-4,5,6-triiodo-3-methyl-3H-1-indoliumyl)-1-propanesulfonate], for which the “Singlet oxygen generation quantum yield ΦΔ” value in data set [2] turned out to be 13%. In addition, the Emission max. is reported as 796 nm in data set [3] (BSA conjugate), 795 nm in data set [3] (Methanol) and 786 nm in data set [3] (Water). Moreover, the Fluorescence quantum yield in data set [3] (BSA conjugate, subject to D/P) is reported as 5-7%; in data set [3] (Methanol) it was 44%. Also, the results for the “QY (fluor)” value in data set [3] (methanol) and in data set [3] (water) were 0.44 and 0.006, respectively. For the same compound, the Hemolysis in data set [4] (10 μM) stood at 3%. Further, the hemolysis at 60 min, 0.1 µM in data set [5] (exposure 60 min) was found to be 70%. The compound also registered a hemolysis at 30 min, 0.5 µM in data set [5] of 74%. In addition, the Absorption max. in data set [6] (BSA conjugate) is 778 nm; in data set [6] (Methanol) it was 765 nm; in data set [6] (Water), 721 nm and 760 nm. Moreover, the “Extinction Coefficient” value was 210,000 M^−1cm^−1 in data set [6] (Methanol) and 100,000 M^−1cm^−1 in data set [6] (Water). Further, the “Extinction coefficient ε at λmax (abs)” value in data set [6] (water) was 210,000.
In the case of `CN1\C(=C/C=C/C=C/C=C/C2=[N+](C)c3cc(Br)c(Br)c(Br)c3C2(C)C)C(C)(C)c2c1cc(Br)c(Br)c2Br.[I-]` [I-88, 4,5,6-tribromo-1,3,3-trimethyl-2-[7-(4,5,6-tribromo-1,3,3-trimethyl-2,3-dihydro-1H-2-indolyliden)-1,3,5-heptatrienyl]-3H-indolium iodide], the “Singlet oxygen generation quantum yield ΦΔ” value in data set [2] turned out to be 11%. In data set [3] (Methanol), this compound registered an Emission max. of 778 nm and a Fluorescence quantum yield of 50%. Also, in data set [3] (methanol), the “QY (fluor)” value amounted to 0.50. In data set [6] (Methanol), the Absorption max. stood at 748 nm and the “Extinction Coefficient” value was 240,000 M^−1cm^−1. In addition, the “Extinction coefficient ε at λmax (abs)” value in data set [6] (methanol) is listed as 240,000.
Regarding `C[N+]1=C(C=CC=CC=CC=C2N(CCCCCC(=O)NCCOCCOCCOCCC(=O)O)c3ccc(S(=O)(=O)[O-])cc3C2(C)CCCCS(=O)(=O)O)C(C)(C)c2c(I)cc(I)cc21` (centres unmarked) [I-89, 1-[5-(2-2-[2-(2-carboxyethoxy)ethoxy]ethoxyethylcarbamoyl)-pentyl]-2-[7-(4,6-diiodo-1,3,3-trimethyl-3H-2-indoliumyl)-2,4,6-heptatrienylidene]-3-methyl-3-(4-sulfobutyl)-5-indolinesulfonate], in data set [2], the “Singlet oxygen generation quantum yield ΦΔ” value was found to be 13%. In data set [3] (Water), the Emission max. is 777 nm and the Fluorescence quantum yield is listed as 21.5%. Moreover, in data set [6] (Water), the Absorption max. turned out to be 750 nm and the “Extinction Coefficient” value was 270,000 M^−1cm^−1.
In the case of `CC1(C)C(/C=C/C=C/C=C/C=C2\N(CCCCS(=O)(=O)[O-])c3ccc4ccccc4c3C2(C)C)=[N+](CCCCS(=O)(=O)[O-])c2ccc3ccccc3c21.[Na+]` [ICG, Indocyanine green, reference compound], the “quantum yield (reporter)” value in data set [1] (in water, background statement) is reported as 0.5-1.3%. Also, the extinction coefficients in data set [7] is on record as 200,000 M^−1 cm^−1. The “Singlet oxygen generation quantum yield ΦΔ” value in data set [2] came to 12%. Also, the Emission max. in data set [3] (Methanol) stood at 818 nm; in data set [3] (Water), 810 nm. The same compound showed a Fluorescence quantum yield in data set [3] (Methanol) of 16%. Further, in data set [8], the “singlet oxygen quantum yield ΦΔ of reference” value is listed as 12%. In addition, the entries for the “Extinction Coefficient” value in data set [6] (Methanol) and in data set [6] (Water) were 200,000 M^−1cm^−1 and 114,000 M^−1cm^−1, respectively.
